From patent US9441003B2, “Membrane staining dyes containing phosphorescent transition metal polypyridine complexes” (City University of Hong Kong, priority 2014, dated 2016)

Experiments:
Assay type in all cases: cell-based
HeLa cells = experiment: Confocal microscopy imaging of HeLa cells treated with complexes; conditions: 50 μM, 37° C., 1 h, excitation 405 nm
Method: (§1) Experiments were conducted to show the working of the staining dye of the present invention. HeLa and MCF-7 cells were grown on sterile glass coverslips in a 60-mm tissue culture dish and incubated at 37° C. under a 5% CO2 atmosphere for 48 h. The culture medium was removed and replaced with medium/DMSO (99:1, v/v) containing the complex at a concentration of 50 μM. After incubation for 1 h, the coverslips were washed with PBS (5 mL×3), and then mounted onto slides for measurements. Imaging was performed using a confocal microscope (Leica TCS SPE) with an excitation wavelength at 405 nm. The emission was measured using a long-pass filter at 532 nm. FIG. 6 illustrates experimental results with fluorescence laser-scanning confocal microscopy images of HeLa cells treated with complexes (50 μM) at 37° C. for 1 h. FIG. 7 illustrates experimental results with fluorescence laser-scanning confocal microscopy images of MCF-7 cells treated with complexes (50 μM) at 37° C. for 1 h.

MCF-7 cells [1] = experiment: Confocal microscopy imaging of MCF-7 cells treated with complexes; conditions: 50 μM, 37° C., 1 h, excitation 405 nm
Method: as §1

MCF-7 cells [2] = experiment: Co-staining with CellMask deep red plasma membrane stain; conditions: complex 50 μM 1 h, CellMask deep red plasma membrane stain 0.25 μL/ml 5 min
Method: Further experiments were conducted to co-stain cells with the complex [Ir(ppyCH2NH—C10)2(bpy-tris)]Cl and the CellMask™ deep red plasma membrane stain. […] Please see FIG. 8 showing fluorescence laser-scanning confocal microscopy images of MCF-7 cells treated with the bpy-tris complex (50 μM, 1 h) and the CellMask™ deep red plasma membrane stain (0.25 μL/ml, 5 min).

Compound	cellular staining pattern (membrane staining / localization) (HeLa cells)	cellular staining pattern (membrane staining / localization) (MCF-7 cells [1])	colocalization coefficient (MCF-7 cells [2]) [%]
Cc1ccnc(-c2cc(C(=O)O)ccn2)c1 [bpy-COOH]	much better membrane staining	much better membrane staining	–
[Ir(ppyCH2NH—C10)2(bpy-tris)]Cl	much better membrane staining	much better membrane staining	92.9
